Data from patent US11299462B2, “Crystal form of oxopicolinamide derivative and preparation method therefor” (JIANGSU HENGRUI MEDICINE CO., LTD., priority 2018, dated 2022).

Assays:
[1] = Study of the stability of the crystal forms (HPLC purity and XRPD crystal form, Day 7); assay type: physicochemical; settings: for XRPD peaks / crystallinity / HPLC purity change / crystal form stability: 25° C.-60% RH and 40° C.-75% RH; for Purity %: HPLC purity, Day 7, spread flat in the air; for Crystal form: XRPD, Day 7; for chemical stability: conclusion from Table 7
Protocol: Example 13. Study of the Stability of the Crystal Forms
The samples of crystal forms A, B, C, D and F were spread flat in the air to test sample stability under conditions of 4° C., 25° C.-60% relative humidity (RH) and 40° C.-75% relative humidity (RH). The sampling was carried out on Day 7. The HPLC purity and crystal form stability of the samples were studied.
The XRPD spectrums of the samples of crystal forms A, B, C, D and F under conditions of 25° C.-60% RH and 40° C.-75% RH are shown in FIGS. 7 to 16.
It can be seen that the stability of crystal forms B and F is better than that of crystal forms A, C and D.

human blood = test: In vitro anticoagulant effect on human blood (APTT detection in plasma); assay type: biochemical
Protocol: Test Example 2: Determination of In Vitro Anticoagulant Effect of the Compound of the Present Invention on Human Blood
1. Experimental Materials
Plasma: human blood was collected in blood collection tubes free of anticoagulant, and then 3.8% sodium citrate (volume ratio 1:9) was added. The tubes were centrifuged at 2500 rpm for 10 minutes at room temperature, and then the plasma was collected and stored at −80° C.;
Reagents: APTT reagent (Activated partial thromboplastin time assay kit, SIEMENS, No. B4218-1), calcium chloride solution;
Instrument: coagulation instrument (SYSMEX, CA-500).
The separated plasma was melted at room temperature and mixed well. 10000 μM of test compound dissolved in 100% DMSO was diluted to 3000, 300, 200, 150, 75, 30, 10, 3, 0.3 μM with 100% DMSO, and the blank was 100% DMSO. The reagent, plasma, and compounds were placed in corresponding positions in the coagulation instrument, and APTT detection of the compound was carried out.
Curve fitting was carried out by Prism, and CT2 (i.e., the concentration of the compound corresponding to 2 times the APTT of the blank control) was calculated. CT2=2.0.

crystallinity [1] | Purity % ([1]; 4° C.) [%] | Purity % ([1]; 25° C. 60% RH) [%] | Purity % ([1]; 40° C. 75% RH) [%] | Crystal form ([1]; 4° C.) | Crystal form ([1]; 25° C. 60% RH) | Crystal form ([1]; 40° C. 75% RH) | chemical stability [1] | HPLC purity change ([1]; 4° C.) | XRPD peaks ([1]; 4° C.) | crystal form stability ([1]; 4° C.) | XRPD ([1]; 40° C.-75% RH) | Structure (SMILES) | XRPD peaks [1] | CT2 (concentration of the compound corresponding to 2 times the APTT of the blank control) (human blood)
has decreased | 98.4 | 98.15 | 98.33 | Same | Different | Different | good |  |  |  |  | COc1cn([C@@H](Cc2ccccc2)C(=O)Nc2ccc(C(=O)O)cc2)c(=O)cc1-c1cc(Cl)ccc1C(C)=O [Crystal form D, (S)-4-(2-(4-(2-acetyl-5-chlorophenyl)-5-methoxy-2-oxopyridin-1(2H)-yl)-3-phenylpropanamido)benzoic acid] | have changed with the loss of some peak characters | 
 |  |  |  |  |  |  |  |  |  |  |  | COc1cn([C@@H](Cc2ccccc2)C(=O)Nc2ccc(C(=O)O)cc2)c(=O)cc1-c1cc(Cl)ccc1C(C)=O [compound of formula (I), (S)-4-(2-(4-(2-acetyl-5-chlorophenyl)-5-methoxy-2-oxopyridin-1(2H)-yl)-3-phenylpropanamido) benzoic acid] |  | 2.0
 | 99.17 | 99.33 | 99.21 | Same | Same | Same | good | changed slightly | have not changed | stable |  | COc1cn([C@@H](Cc2ccccc2)C(=O)Nc2ccc(C(=O)O)cc2)c(=O)cc1-c1cc(Cl)ccc1C(C)=O [Crystal form F, (S)-4-(2-(4-(2-Acetyl-5-chlorophenyl)-5-methoxy-2-oxopyridin-1(2H)-yl)-3-phenylpropanamido)benzoic acid] |  | 
 | 99.28 | 99.29 | 99.31 | Same | Same | Different | good |  |  |  | has also changed | COc1cn([C@@H](Cc2ccccc2)C(=O)Nc2ccc(C(=O)O)cc2)c(=O)cc1-c1cc(Cl)ccc1C(C)=O [Crystal form C, (S)-4-(2-(4-(2-Acetyl-5-chlorophenyl)-5-methoxy-2-oxopyridin-1(2H)-yl)-3-phenylpropanamido)benzoic acid] |  | 
 | 99.13 | 99.14 | 99.13 | Same | Same | Same | good | changed slightly | have not changed | stable |  | COc1cn([C@@H](Cc2ccccc2)C(=O)Nc2ccc(C(=O)O)cc2)c(=O)cc1-c1cc(Cl)ccc1C(C)=O [Crystal form B, (S)-4-(2-(4-(2-Acetyl-5-chlorophenyl)-5-methoxy-2-oxopyridin-1(2H)-yl)-3-phenylpropanamido)benzoic acid] |  | 
has decreased | 98.94 | 98.99 | 99.01 | Same | Different | Different | good |  |  |  |  | COc1cn([C@@H](Cc2ccccc2)C(=O)Nc2ccc(C(=O)O)cc2)c(=O)cc1-c1cc(Cl)ccc1C(C)=O [Crystal form A, (S)-4-(2-(4-(2-Acetyl-5-chlorophenyl)-5-methoxy-2-oxopyridin-1(2H)-yl)-3-phenylpropanamido)benzoic acid] | have changed with the loss of some peak characters | 
